In US10342812B2, “Glycan-based drugs, therapies and biomarkers” (priority 2008, dated 2019):

Tests used:
[1] = test system: A/PR/8/34(H1N1) influenza virus strain; test: Treatment of influenza infection of newborn mice (15.2); type: in vivo, mouse; settings: virus at P5, i.p. treatment at day 2, 3, 4 and 5; kept 10 days
Experimental: Four groups of newborn bulb/c pups were inoculated at day 5 (P5) via nasal and oral administration of 20 μl (microliter) of the A/PR/8/34(H1N1) influenza virus strain (titer: 1:256, diluted 200 times with saline); and were treated at day 2, 3, 4 and 5 via intraperitoneal injection with 100 μl of saline containing 1) saline alone (n=10); 2) 150 microgram of Neu5AcMe; 3) 30 μl of 2% diethyl disulfide plus 200 μg of the Neu5AcMe (n=10); and 4) 30 μl of 2% diethyl disulfide plus 200 μg of the Neu5Ac (n=10). Mice were kept for 10 days after treatment.

rhesus rotavirus (RRV) [2] = test: Prevention of rotavirus infection in mouse pups with Neu5Ac, methionine, formula-1 (5.7); type: in vivo; settings: for Not sick (number) / Sick Rate(%): 20 μl oral at P1, RRV at P2; for Sick (number): 20 μl oral at P1, RRV at P2, 3 weeks; for Odds Ratio: vs saline
[3] = test system: 2009H1N1 influenza virus (California strain); type: in vivo, chicken
rhesus rotavirus (RRV) [4] = test: Prevention of rotavirus infection in mouse pups with methionine-Zn (8.1); type: in vivo
[5] = type: in vivo, chicken
[6] = pretreated at E16, virus next day

COC(=O)[C@]1(O)CC(O)[C@@H](NC(C)=O)C(C(O)[C@H](O)CO)O1 (some centres unmarked) [Neu5AcMe, N-Acetylneuraminic acid methyl ester]
pups survived [1]: 50%

CSCC[C@H](N)C(=O)O [Metnionine, Methionine]
Not sick (number) (rhesus rotavirus (RRV) [2]): 9
Sick Rate(%) (rhesus rotavirus (RRV) [2]): 25.0%
Sick (number) (rhesus rotavirus (RRV) [2]): 3
Odds Ratio (rhesus rotavirus (RRV) [2]): 0.07

CCSSCC [Diethyl disulfide]
Not sick (number) [3, 6]: 5
Sick (number) [3, 6]: 1
Sick Rate(%) [3, 6]: 17%
Odds Ratio ([3]; vs saline): 0.04

Methionine-Zinc (Zn) complex [Metnionine-Zn]
Not sick (number) (rhesus rotavirus (RRV) [4]; 20 μl oral at P1, RRV at P2): 6
Sick Rate(%) (rhesus rotavirus (RRV) [4]; 20 μl oral at P1, RRV at P2): 14%
Sick (number) (rhesus rotavirus (RRV) [4]; 20 μl oral at P1, RRV at P2, 3 weeks): 1
Odds Ratio (rhesus rotavirus (RRV) [4]; vs saline): 0.03

CC(=O)N[C@H]1[C@H]([C@H](O)[C@H](O)CO)OC(O)(C(=O)O)C[C@@H]1O (some centres unmarked) [Neu5Ac, N-Acetylneuraminic acid]
Not sick (number) (rhesus rotavirus (RRV) [2]): 10
Sick Rate(%) (rhesus rotavirus (RRV) [2]): 23.1%
Sick (number) (rhesus rotavirus (RRV) [2]): 3
Odds Ratio (rhesus rotavirus (RRV) [2]): 0.07
side effect of the H5N1 vaccine candidate (still sick) ([5]; day 3, saline 87.5%): 12.5%
Odd Ratio ([5]; in vivo): 0.02
sick chickens recovered and looked normal ([5]; in vivo, po): 7/8
